Assays:
[1] = target: Histone-lysine N-methyltransferase EZH2 (Homo sapiens) (UniProt Q15910); test: Binding affinity to EZH2 (unknown origin) assessed as residence time
[2] = target: CDK8/Cyclin C (Homo sapiens) (UniProt P49336+P24863); test: Binding affinity to CDK8/CycC (unknown origin) assessed as residence time; assay type: protein-complex assay
[3] = target: T1, Fatty-acid amide hydrolase 1 (Homo sapiens) (UniProt O00519); test: Inhibition of recombinant human FAAH assessed as dissociation half life
T1 sequence (whole entry): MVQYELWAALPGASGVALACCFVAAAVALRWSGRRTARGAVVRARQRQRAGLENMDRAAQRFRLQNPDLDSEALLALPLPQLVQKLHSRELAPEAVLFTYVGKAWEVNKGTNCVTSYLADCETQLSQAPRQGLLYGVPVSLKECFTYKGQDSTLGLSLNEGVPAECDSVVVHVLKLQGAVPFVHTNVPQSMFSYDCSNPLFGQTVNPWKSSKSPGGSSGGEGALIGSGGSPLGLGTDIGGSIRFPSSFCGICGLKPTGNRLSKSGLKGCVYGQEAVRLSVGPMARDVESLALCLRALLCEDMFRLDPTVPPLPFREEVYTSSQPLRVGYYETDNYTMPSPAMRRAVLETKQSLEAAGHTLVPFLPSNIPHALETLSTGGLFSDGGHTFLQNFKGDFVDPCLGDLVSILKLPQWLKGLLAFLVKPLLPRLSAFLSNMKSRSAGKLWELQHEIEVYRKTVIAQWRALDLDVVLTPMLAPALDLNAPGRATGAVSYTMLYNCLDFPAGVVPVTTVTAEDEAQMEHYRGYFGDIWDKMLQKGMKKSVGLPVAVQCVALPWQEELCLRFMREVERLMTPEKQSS

Chain of Histone-lysine N-methyltransferase EZH2 (Homo sapiens) (Q15910 whole entry, looked up): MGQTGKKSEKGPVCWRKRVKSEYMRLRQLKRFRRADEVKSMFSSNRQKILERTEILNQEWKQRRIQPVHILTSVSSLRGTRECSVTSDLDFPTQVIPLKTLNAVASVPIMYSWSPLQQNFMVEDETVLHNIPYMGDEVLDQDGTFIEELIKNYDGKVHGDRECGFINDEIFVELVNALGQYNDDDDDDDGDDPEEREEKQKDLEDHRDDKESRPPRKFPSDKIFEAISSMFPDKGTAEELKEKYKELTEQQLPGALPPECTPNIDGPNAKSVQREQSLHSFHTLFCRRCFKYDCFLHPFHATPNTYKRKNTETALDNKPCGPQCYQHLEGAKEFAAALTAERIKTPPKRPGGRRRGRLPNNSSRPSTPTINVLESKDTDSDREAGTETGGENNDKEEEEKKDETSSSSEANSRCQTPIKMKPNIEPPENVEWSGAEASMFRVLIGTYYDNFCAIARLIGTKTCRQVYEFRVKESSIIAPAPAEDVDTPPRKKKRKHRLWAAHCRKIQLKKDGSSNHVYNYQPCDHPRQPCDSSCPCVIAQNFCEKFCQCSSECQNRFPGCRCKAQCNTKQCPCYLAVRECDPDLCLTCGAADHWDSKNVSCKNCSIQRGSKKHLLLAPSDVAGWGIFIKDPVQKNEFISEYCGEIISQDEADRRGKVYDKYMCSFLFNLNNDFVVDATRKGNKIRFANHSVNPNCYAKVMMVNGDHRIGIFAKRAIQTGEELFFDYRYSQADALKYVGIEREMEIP

Compound | TIME [1] | TIME [2] | T1/2 [3]
CCCc1cc(C)[nH]c(=O)c1CNC(=O)c1cc(-c2ccnc(N3CCN(C)CC3)c2)cc2c1ccn2C(C)C | 0.717 h |  | 
Cc1ccc(CNC(=O)c2cc(-c3ccnc(N4CCN(C)CC4)c3)cc3c2ccn3C(C)C)c(=O)[nH]1 | 1.03 h |  | 
Cc1ccc(-n2nc(C(C)(C)C)cc2NC(=O)NCCN2CCOCC2)cc1 |  | < 0.0233 h | 
O=C(CCCCCCc1ccccc1)c1ncc(-c2ccccn2)o1 |  |  | > 10 h
Cc1ccc(-n2nc(C(C)(C)C)cc2NC(=O)NCCN2CCN(C(=O)Nc3cc(C(C)(C)C)nn3-c3ccc(C)cc3)CC2)cc1 |  | 27.1 h | 
O=C(CCCCCCc1ccccc1)c1nc2ncccc2o1 |  |  | > 10 h

From ChEMBL document CHEMBL3400049, “Design strategies to address kinetics of drug binding and residence time” (Bioorg Med Chem Lett, 2015)
